Assay results: ChEMBL document CHEMBL4402530, “New dimensions in the field of antimalarial research against malaria resurgence” (Eur J Med Chem, 2019)

Columns and labels:
Plasmodium falciparum [1] = test: Antiparasitic activity against Plasmodium falciparum TM91C235; type: functional, organism-based
Plasmodium falciparum [2] = test: Antiparasitic activity against Plasmodium falciparum D6; type: functional, organism-based
Plasmodium falciparum [3] = test: Antiparasitic activity against Plasmodium falciparum W2; type: functional, organism-based
Plasmodium falciparum [4] = test: Antiparasitic activity against Plasmodium falciparum infected in human PBMC; type: functional, organism-based
Plasmodium falciparum [5] = test: Antiparasitic activity against Plasmodium falciparum infected in human HepG2 cells; type: functional, organism-based
Plasmodium falciparum [6] = test: Antiparasitic activity against Plasmodium falciparum […]; type: functional, organism-based
Plasmodium falciparum [7] = test: Antiparasitic activity against chloroquine-resistant Plasmodium falciparum Dd2; type: functional, organism-based
Plasmodium falciparum [8] = test: Antiparasitic activity against Plasmodium falciparum 3D7; type: functional, organism-based
Plasmodium falciparum [9] = test: Antiparasitic activity against Plasmodium falciparum C2B; type: functional, organism-based
Plasmodium falciparum [10] = test: Antiparasitic activity against Plasmodium falciparum Tm90; type: functional, organism-based
Plasmodium falciparum [11] = test: Antiparasitic activity against Plasmodium falciparum Dd2; type: functional, organism-based
Plasmodium falciparum [12] = test: Antiparasitic activity against Plasmodium falciparum; type: functional, organism-based
Plasmodium falciparum [13] = test: Antiparasitic activity against Plasmodium falciparum infected in mouse; type: functional
Plasmodium berghei [14] = test: Antiparasitic activity against Plasmodium berghei ANKA infected in CD1 mouse assessed as reduction in parasitemia; type: functional
Plasmodium falciparum [15] = test: Antiparasitic activity against Plasmodium falciparum infected in SCID mouse; type: functional
Plasmodium falciparum [16] = test: Antiparasitic activity against Plasmodium falciparum K1; type: functional, organism-based
Plasmodium falciparum [17] = test: Antiparasitic activity against Plasmodium falciparum D10; type: functional, organism-based
Plasmodium berghei [18] = test: Antiparasitic activity against Plasmodium berghei ANKA infected in mouse assessed as mouse survival; type: functional
[19] = Selectivity index, ratio of IC50 for African green Monkey BGM cells to IC50 for chloroquine-resistant Plasmodium falciparum W2; type: toxicity; conditions: read-out: Selectivity Index

Molecule `CC(=O)O[C@H]1C[C@H]2[C@@H]([C@H](OC(C)=O)C[C@@H]3C[C@H](N)CC[C@@]32C)[C@@H]2CC[C@H]([C@H](C)CCCN(C)CCNc3ccnc4cc(Cl)ccc34)[C@@]12C` has an IC50 (Plasmodium falciparum [1]) of 9.2 nM, an IC50 (Plasmodium falciparum [2]) of 4.46 nM and an IC50 (Plasmodium falciparum [3]; Plasmodium falciparum, W2) of 3.74 nM. For the same molecule, the IC50 (Plasmodium falciparum [4]) was > 1000 nM, the IC50 (Plasmodium falciparum [5]) was > 1000 nM and the IC50 (Plasmodium falciparum [6]) was 1140 nM.

Molecule `NS(=O)(=O)c1ccc(-n2cc(CNc3ccnc4cc(Cl)ccc34)nn2)cc1` has an IC50 (Plasmodium falciparum [7]) of 600 nM and an IC50 (Plasmodium falciparum [8]; Plasmodium falciparum, 3D7) of 600 nM.

`NS(=O)(=O)c1cccc(-n2cc(CCNc3ccnc4cc(Cl)ccc34)nn2)c1` gave an IC50 (Plasmodium falciparum [7]) of 600 nM and an IC50 (Plasmodium falciparum [8]; Plasmodium falciparum, 3D7) of 600 nM.

In the case of `NS(=O)(=O)c1ccc(-n2cc(CCNc3ccnc4cc(Cl)ccc34)nn2)cc1`, the IC50 (Plasmodium falciparum [7]) is reported as 600 nM and the IC50 (Plasmodium falciparum [8]; Plasmodium falciparum, 3D7) is reported as 600 nM.

`CC(C)=CC(=O)O[C@@H]1C[C@@]2(C)[C@@H](C=C1C)O[C@@H]1[C@H](O)[C@@H](O)[C@@]2(C)[C@]12CO2` gave an IC50 (Plasmodium falciparum [3]) of 370 nM and an IC50 (Plasmodium falciparum [8]) of 29 nM.

In the case of `CC(=O)O[C@H]1C[C@H]2[C@@H]([C@H](OC(C)=O)C[C@@H]3C[C@H](O)CC[C@@]32C)[C@@H]2CC[C@H]([C@H](C)CCCNCCNc3ccnc4cc(Cl)ccc34)[C@@]12C`, the IC50 (Plasmodium falciparum [2]) is reported as 1.35 to 14.1 nM and the IC50 (Plasmodium falciparum [3]; Plasmodium falciparum, W2) is reported as 2.63 to 13.8 nM.

`CC(=O)O[C@H]1C[C@H]2[C@@H]([C@H](OC(C)=O)C[C@@H]3C[C@H](N(C)C)CC[C@@]32C)[C@@H]2CC[C@H]([C@H](C)CCCN(C)CCNc3ccnc4cc(Cl)ccc34)[C@@]12C` gave an IC50 (Plasmodium falciparum [1]) of 3.32 nM, an IC50 (Plasmodium falciparum [2]) of 2.63 nM and an IC50 (Plasmodium falciparum [6]) of 2270 nM.

Molecule `Cc1[nH]c2cc(F)cc(F)c2c(=O)c1CCCCCCCl` has an IC50 (Plasmodium falciparum [9]) of 146 nM, an IC50 (Plasmodium falciparum [10]) of 81 nM and an IC50 (Plasmodium falciparum [2]) of 0.05 nM. The IC50 (Plasmodium falciparum [11]) was 0.4 nM.

`O[C@@H](c1cc(C(F)(F)F)nc2c(C(F)(F)F)cccc12)[C@H]1CCCCN1` [(S,R)-MEFLOQUINE] gave an IC50 (Plasmodium falciparum [2]) of 15.2 nM.

`CC(=O)O[C@H]1C[C@H]2[C@@H]([C@H](OC(C)=O)C[C@@H]3CC(=O)CC[C@@]32C)[C@@H]2CC[C@H]([C@H](C)CCCNCCNc3ccnc4cc(Cl)ccc34)[C@@]12C` showed an IC50 (Plasmodium falciparum [2]) of 1.35 to 14.1 nM and an IC50 (Plasmodium falciparum [3]; Plasmodium falciparum, W2) of 2.63 to 13.8 nM.

Work on `COc1cc2[nH]c(C)c(-c3ccc(Oc4ccc(OC(F)(F)F)cc4)cc3F)c(=O)c2cc1Cl` yielded an EC50 (Plasmodium falciparum [2]) of 3.18 to 32.3 nM, an EC50 (Plasmodium falciparum [12]) of 1.06 nM and an EC50 (Plasmodium falciparum [8]; Plasmodium falciparum, 3D7) of 3.18 to 32.3 nM. The EC50 (Plasmodium falciparum [4]) was 3.18 to 32.3 nM and the ED50 (Plasmodium falciparum [13]) was 0.3 mg/kg.

With `C[C@H]1Cc2c([nH]c3cc(Cl)c(F)cc23)[C@@]2(N1)C(=O)Nc1ccc(Cl)cc12` [CIPARGAMIN] the ED50 (Plasmodium falciparum [13]) was 1 mg/kg, the ED90 (Plasmodium falciparum [13]) was 3 mg/kg and the ED99 (Plasmodium falciparum [13]) was 5 mg/kg.

Work on `CC(=O)O[C@H]1C[C@H]2[C@@H]([C@H](OC(C)=O)C[C@@H]3C[C@H](NC(=O)OC(C)(C)C)CC[C@@]32C)[C@@H]2CC[C@H]([C@H](C)CCCNCCNc3ccnc4cc(Cl)ccc34)[C@@]12C` yielded an IC50 (Plasmodium falciparum [2]) of 1.35 to 14.1 nM.

Work on `CC(C)(C)NCc1cc(Nc2ccnc3cc(Cl)ccc23)ccc1F` yielded an ED50 (Plasmodium berghei [14]) of 5.3 mg/kg.

Work on `CCCCCCCc1c(C)nc2cc(F)cc(F)c2c1OC(=O)OCCOCCOCCOCCOC` yielded an IC50 (Plasmodium falciparum [9]) of 146 nM, an IC50 (Plasmodium falciparum [10]) of 81 nM and an IC50 (Plasmodium falciparum [2]) of 0.05 nM. For the same molecule, the IC50 (Plasmodium falciparum [11]) was 0.4 nM.

`COc1cc2[nH]c(C)c(-c3ccc(Oc4ccc(OC(F)(F)F)cc4)cc3)c(=O)c2cc1Cl` showed an EC50 (Plasmodium falciparum [2]) of 1.3 to 13.6 nM, an EC50 (Plasmodium falciparum [12]) of 0.58 nM and an EC50 (Plasmodium falciparum [8]; Plasmodium falciparum, 3D7) of 1.3 to 13.6 nM. For the same molecule, the EC50 (Plasmodium falciparum [4]) was 1.3 to 13.6 nM, the ED50 (Plasmodium falciparum [13]) was 0.016 mg/kg and the ED50 (Plasmodium falciparum [15]) was 6 mg/kg.

`CC(C)(C)c1ccc(/C=N/NC(=O)C(=O)Nc2ccc(Nc3ccnc4cc(Cl)ccc34)cc2)cc1` gave an IC50 (Plasmodium falciparum [16]) of 52 nM and an IC50 (Plasmodium falciparum [8]; Plasmodium falciparum, 3D7) of 19.7 nM.

Molecule `NS(=O)(=O)c1ccc(-n2cc(CCCNc3ccnc4cc(Cl)ccc34)nn2)cc1` has an IC50 (Plasmodium falciparum [7]) of 600 nM and an IC50 (Plasmodium falciparum [8]; Plasmodium falciparum, 3D7) of 600 nM.

`CC(C)c1cc2c(cc1O)[C@@]1(C)CCCC(C)(C)[C@@H]1CC2` [FERRUGINOL] showed an IC50 (Plasmodium falciparum [2]) of 0.9 to 4.2 µg/mL, an IC50 (Plasmodium falciparum [16]) of 0.9 to 4.2 µg/mL and an IC50 (Plasmodium falciparum [17]) of 0.9 to 4.2 µg/mL. It also gave an IC50 (Plasmodium falciparum [3]; Plasmodium falciparum, W2) of 0.9 to 4.2 µg/mL.

With `OC(CN1CCC2(CC1)CC(O)c1ccc3ccccc3c1O2)c1ccc(F)c(F)c1` (stereo not drawn) the EC50 (Plasmodium falciparum [7]) was 350 nM and the Survival (Plasmodium berghei [18]) was >1.7 days.

`COc1cc(NC(C)CCCNCc2ccc(CO[C@H]3O[C@@H]4O[C@@]5(C)CC[C@H]6[C@H](C)CC[C@@H]([C@H]3C)[C@@]46OO5)cc2)c2ncccc2c1` (stereo partly drawn) showed an IC50 (Plasmodium falciparum [3]; Plasmodium falciparum, W2) of 112 nM.

`CC(=O)O[C@H]1C[C@H]2[C@@H]([C@H](OC(C)=O)C[C@@H]3CC(=O)CC[C@@]32C)[C@@H]2CC[C@H]([C@H](C)CCCNCCCNc3ccnc4cc(Cl)ccc34)[C@@]12C` showed an IC50 (Plasmodium falciparum [2]) of 1.35 to 14.1 nM and an IC50 (Plasmodium falciparum [3]; Plasmodium falciparum, W2) of 2.63 to 13.8 nM.

`NS(=O)(=O)c1cccc(-n2cc(CNc3ccnc4cc(Cl)ccc34)nn2)c1` showed an IC50 (Plasmodium falciparum [7]) of 600 nM and an IC50 (Plasmodium falciparum [8]; Plasmodium falciparum, 3D7) of 600 nM.

Molecule `O=C(N/N=C/c1ccc(Br)cc1)C(=O)Nc1ccc(Nc2ccnc3cc(Cl)ccc23)cc1` has an IC50 (Plasmodium falciparum [16]) of 52 nM and an IC50 (Plasmodium falciparum [8]; Plasmodium falciparum, 3D7) of 19.7 nM.

In the case of `O=Cc1cn(-c2ccnc3cc(Cl)ccc23)nn1`, the selectivity ratio [19] is reported as 351.

In the case of `CC(=O)O[C@@H]1CC[C@@]2(C)[C@@H](C1)C[C@@H](OC(C)=O)[C@@H]1[C@@H]2C[C@H](OC(C)=O)[C@]2(C)[C@@H]([C@H](C)CCCNCCCNc3ccnc4cc(Cl)ccc34)CC[C@@H]12`, the IC50 (Plasmodium falciparum [3]; Plasmodium falciparum, W2) is reported as 2.63 to 13.8 nM.

`CC(=O)O[C@@H]1CC[C@@]2(C)[C@@H](C1)C[C@@H](OC(C)=O)[C@@H]1[C@@H]2C[C@H](OC(C)=O)[C@]2(C)[C@@H]([C@H](C)CCCN(C)CCCNc3ccnc4cc(Cl)ccc34)CC[C@@H]12` gave an IC50 (Plasmodium falciparum [3]; Plasmodium falciparum, W2) of 2.63 to 13.8 nM.

Work on `NS(=O)(=O)c1cccc(-n2cc(CCCNc3ccnc4cc(Cl)ccc34)nn2)c1` yielded an IC50 (Plasmodium falciparum [7]) of 600 nM and an IC50 (Plasmodium falciparum [8]; Plasmodium falciparum, 3D7) of 600 nM.

In the case of `CC(CCNc1ccnc2cc(Cl)ccc12)NCCO[C@H]1O[C@@H]2O[C@@]3(C)CC[C@H]4[C@H](C)CC[C@@H]([C@H]1C)[C@@]24OO3` (stereo partly drawn), the IC50 (Plasmodium falciparum [17]) is reported as 17.1 nM and the IC50 (Plasmodium falciparum [11]) is reported as 12.2 nM.

In the case of `CC(=O)O[C@H]1C[C@H]2[C@@H]([C@H](OC(C)=O)C[C@@H]3C[C@H](NS(C)(=O)=O)CC[C@@]32C)[C@@H]2CC[C@H]([C@H](C)CCCN(C)CCNc3ccnc4cc(Cl)ccc34)[C@@]12C`, the IC50 (Plasmodium falciparum [2]) is reported as 1.35 to 14.1 nM and the IC50 (Plasmodium falciparum [3]; Plasmodium falciparum, W2) is reported as 2.63 to 13.8 nM.

For `CC(=O)O[C@H]1C[C@H]2[C@@H]([C@H](OC(C)=O)C[C@@H]3C[C@H](NC(=O)OC(C)(C)C)CC[C@@]32C)[C@@H]2CC[C@H]([C@H](C)CCCN(C)CCNc3ccnc4cc(Cl)ccc34)[C@@]12C`, the IC50 (Plasmodium falciparum [3]; Plasmodium falciparum, W2) was 2.63 to 13.8 nM.
